Entries after “also recorded” stand apart in the source; their conditions may differ.
Test system: LPS-stimulated TNF-α production
Experiment: LPS-stimulated TNF-α production by THP-1-derived monocytes (ELISA)
Format: cell-based, human
Settings: differentiated THP-1 cells, endotoxin 10 ng/ml, 24 hours; for effect on LPS-stimulated TNF-α production/synthesis (in words): rising concentrations
Protocol: The human promonocytic THP-1 cell line (American Type Culture Collection, Manassas, Va.) was maintained in suspension culture at 0.25×10^6 cells/ml in RPMI-1640 medium supplemented with 2 mM L-glutamine, 10% fetal bovine serum and 0.05 mM 2-mercaptoethanol in a humidified atmosphere of 5% CO2 in air at 37° C. Differentiation to monocytes (0.25×10^6 cells/ml) was induced by incubating cells with trans-retinoic acid (1 μM), 1.25 dihydroxy cholecalciferol (0.1 μM) and interferon-γ (0.01 mg/l) (Sigma, St. Louis, Mo.). After 3 days, cells were detached using trypsin-EDTA, washed in PBS, and 1×10^6 cells were used for each experimental condition.
Differentiated THP-1 cells were co-incubated with 10 ng/ml of purified Escherichia coli endotoxin (serotype O55: B5, Sigma Chemical Co.) and rising concentrations (0-400 μM) of either melatonin, N-acetyldopamine (NAD) or N-methyldopamine (NMD) or 3-hydroxy-4-methoxy-dopamine (HMP) (Sigma) in RPMI-1640 cell culture medium at 37° C. in a humidified atmosphere supplemented with 5% CO2. After 24-hour incubation, cell supematants were harvested, and TNF-α was measured by a sandwich enzyme linked immunosorbent assay (ELISA), according to the manufacturer's instructions (Quantikine®, R & D systems, Minneapolis, Minn., USA). The lower limit of detection for TNF-α was 1.6 pg/ml. The average intra-assay coefficient of variation for TNF-α was 5%.

| SMILES | effect on LPS-stimulated TNF-α production/synthesis (in words) | potency in blocking TNF-α production compared with NMD, HMP and melatonin (low-dose (1-20 μM, FIG. 1)) |
| --- | --- | --- |
| CC(=O)NCCc1ccc(O)c(O)c1 [NAD, N-acetyldopamine] | marked decrease in LPS-stimulated TNF-α production, which was dose dependent; also recorded: suppress LPS-stimulated TNF-α synthesis by monocytic cells in a dose-dependent manner | more potent in blocking TNF-α production |
| CC(=O)NCCc1c[nH]c2ccc(O)cc12 [NAS, N-acetyl-serotonin, reference compound] | marked decrease in LPS-stimulated TNF-α production, which was dose dependent |  |
| CNCCc1ccc(O)c(O)c1 [NMD, N-methyldopamine] | suppress LPS-stimulated TNF-α synthesis by monocytic cells in a dose-dependent manner |  |
| COc1ccc2[nH]cc(CCNC(C)=O)c2c1 [melatonin, reference compound] | marked decrease in LPS-stimulated TNF-α production, which was dose dependent |  |

Reference: patent publication US20080234385A1, “Method For Inhibiting Tnf-Alpha” (CARITAS ST. ELIZABETH'S MEDICAL CENTER, priority 2005, published 2008)
